# Where two headings read alike, the source gives them in different places.
# Experiments:
# [1] = tested on: hemorrhagic shock; conditions: 50 μM nitrite, previous study, cited from earlier work
# [2] = tested on: hemorrhagic shock; type: in vivo, Golden Syrian Hamsters
# Protocol: (§1) Experiments were performed in 55-65 g male Golden Syrian Hamsters (Charles River Laboratories, Boston, Mass.) fitted with a dorsal skinfold window chamber. Animal handling and care followed the NIH Guide for the Care and Use of Laboratory Animals. The hamster window chamber model is widely used for microvascular studies in the unanesthetized state. The complete surgical technique is described in detail elsewhere, such as in Colantuoni et al. in Am J Physiol 1984; 246:H508-17. Three to four days after the initial surgery, the microvasculature was examined and only animals passing an established systemic and microcirculatory inclusion criteria, as previously described (e.g., in Cabrales P. Low dose nitrite enhances perfusion after fluid resuscitation from hemorrhagic shock. Resuscitation 2009; 80: 1431-6), were entered into the study.
# Acute hemorrhage was induced by withdrawing 50% of estimated total blood volume (BV) via the carotid artery catheter within 5 min. Total BV was estimated as 7% of body weight. […]
# Conscious animal was placed in a restraining tube with a longitudinal slit from which the window chamber protruded, then fixed to the microscopic stage for transillumination with the intravital microscope (BX51WI, Olympus, New Hyde Park, N.Y.). […] Systemic (MAP, HR, Het, Hb, PaO2, PaCO2, pH, lactate, plasma nitrite, and metHb) and microvascular (artciorlar and venular diameters, blood flow, and FCD) parameters were analyzed, as previously described (e.g., in P. Nachuraju et al. in Resuscitation 2011; 82:607-613; Cabrales P. in Resuscitation 2009; 80:1431-6; Cabrales et al. in Shock 2007; 27:380-9; and Cabrales et al. in Am J Physiol 2004; 287:H363-73) before hemorrhage (baseline), after hemorrhage (shock), and up to 90 min after volume replacement (resuscitation). Tissue viability was measured at 8 hours following hemorrhage as described previously (e.g., in Yang et al. In Invest Ophthalmol Vis Sci 2003; 44:1993-1997; and Cabrales et al. in Antioxid Redox Signal 2007; 9:375-84). […]
# [3] = tested on: hemorrhagic shock; assay: Resuscitation from hemorrhagic shock, hamster window chamber model: systemic parameters; conditions: for BP / HR / Hb / Hct / Lactate / pCO2 / pO2 / pH: mean ± SD; for pH: arterial
# Protocol: as §1
# (§2) Acute hemorrhage was induced by withdrawing 50% of estimated total blood volume (BV) via the carotid artery catheter within 5 min. Total BV was estimated as 7% of body weight. One hour after hemorrhage induction, animals received 25% of BY of resuscitation (200 μl/min) via the jugular vein catheter, implemented with the volume resuscitation strategy defined by the group name, according to the scheme described before.
# (§3) Fresh blood was collected from a donor, adult male Golden Syrian Hamsters (60-80 g). Briefly, hamster donors were anaesthetized, left carotid artery catheter was implanted, and blood was allowed to flow into heparinized tubes (sodium heparin 15 IU/mL). RBCs and plasma were separated by centrifugation (2700 rpm, 7 min). Buffy coat was discarded. RRx-001 treated cells were prepared by incubation of 1 mL of packed cells with 2 mg of RRx-001 for 30 minutes at 4° C., cells were rinsed 2× by centrifugation at 3,000 rpm with phosphate buffer saline (PBS) solution with 0.5% albumin (pre-filtered 0.22 μm, pH 7.4). After the final wash, red blood cells (RBCs) were adjusted to a 30% Het with fresh plasma.
# (§4) For the groups that received “nitrite,” 10 μM (in saline 100 μL) of sodium nitrite in saline was infused via the carotid artery catheter 10 minutes after resuscitation for the groups that received nitrite. An equal volume of saline was given to the other groups. To address effects of instrumentation and observation, an additional Sham group was included.
# (§5) Conscious animal was placed in a restraining tube with a longitudinal slit from which the window chamber protruded, then fixed to the microscopic stage for transillumination with the intravital microscope (BX51WI, Olympus, New Hyde Park, N.Y.). Animals were given 20 min to adjust to the tube environment before any measurements were made. The tissue image was projected onto a charge-coupled device camera (4815, COHU, San Diego, Calif.) connected to a videocassette recorder and viewed on a monitor. Measurements were carried out using a 40× (LUMPFL-WIR, numerical aperture 0.8, Olympus) water immersion objective. Systemic (MAP, HR, Het, Hb, PaO2, PaCO2, pH, lactate, plasma nitrite, and metHb) and microvascular (artciorlar and venular diameters, blood flow, and FCD) parameters were analyzed, as previously described (e.g., in P. Nachuraju et al. in Resuscitation 2011; 82:607-613; Cabrales P. in Resuscitation 2009; 80:1431-6; Cabrales et al. in Shock 2007; 27:380-9; and Cabrales et al. in Am J Physiol 2004; 287:H363-73) before hemorrhage (baseline), after hemorrhage (shock), and up to 90 min after volume replacement (resuscitation). Tissue viability was measured at 8 hours following hemorrhage as described previously (e.g., in Yang et al. In Invest Ophthalmol Vis Sci 2003; 44:1993-1997; and Cabrales et al. in Antioxid Redox Signal 2007; 9:375-84).
# (§6) Table and figure results are presented as mean±SD.
# [4] = tested on: hemorrhagic shock; assay: Resuscitation from hemorrhagic shock, hamster window chamber model: microvascular measurements; type: in vivo, Golden Syrian Hamsters; conditions: for functional capillary density (FCD), baseline average and standard deviation: before hemorrhage (FIG. 11)
# Protocol: as §1, §2, §3, §4, §5, §6
# [5] = tested on: blood sample; assay: Nitric oxide production in a sample of blood with sodium nitrite (Tonometer, chemiluminescent NO analysis); type: cell-based; conditions: anaerobic conditions (N2 atmosphere), 30 min, 37° C., compared to without ABDNAZ or with ABDNAZ under air
# Protocol: The ability of ABDNAZ to increase nitric oxide production in a sample of blood under aerobic conditions and anaerobic conditions was evaluated.
# A 0.5 mL aliquot of blood was placed in a tonometer. ABDNAZ (5 μL of a 300 mM solution of ABDNAZ in dimethylsulfoxide) was optionally added to the blood sample in the Tonometer. Sodium nitrite was added to the blood sample to achieve a sodium nitrite concentration of 167 mM. Gas (either air or N2) was passed through the Tonometer at a flow rate of 150 mL/min. Gas exiting the Tonometer was collected in three-minute intervals for a period of thirty minutes. The amount of nitric oxide in each of the collected fractions was measured by a chemiluminescent reaction with ozone in a Sievers Nitric Oxide Analyzer. The amount of nitric oxide produced from the blood sample was expressed per mole of hemoglobin present in the blood sample. All experiments were performed at 37° C.
# The amount of hemoglobin (Hb) and hematocrit (Het) in the blood sample was determined using an Advia analyzer.
# [6] = 60 minutes following resuscitation
# [7] = 90 minutes following resuscitation
# [8] = Shock (50 min), after hemorrhage, before resuscitation
# [9] = Shock (50 min), before resuscitation
# [10] = 8 hours following resuscitation, cells in 40 fields
compound,measurement,setting,value
"O=NO [Nitrite, sodium nitrite]",% metHb,[1]; [6],5.8±1.8%
same,Blood pressure compared to 0 μM group (control group),[1]; [6],significantly decreased
same,% metHb,[1]; [7],3.1±1.3%
same,number of necrotic cells compared to the blood group,"[2]; hamster, in vivo",significantly reduced
same,BP,[3]; Baseline (before hemorrhage),104.3 ± 9.0 mmHg
same,HR,[3]; Baseline (before hemorrhage),428 ± 13 bpm
same,Hb,[3]; Baseline (before hemorrhage),15.2 ± 0.3 g/dL
same,Hct,[3]; Baseline (before hemorrhage),49.8 ± 0.8%
same,Lactate,[3]; Baseline (before hemorrhage),1.30 ± 0.13 mmol/L
same,pCO2,[3]; Baseline (before hemorrhage),52.9 ± 1.2 mmHg
same,pO2,[3]; Baseline (before hemorrhage),60.5 ± 1.0 mmHg
same,BP,[3]; Resuscitation (30 min),91.3 ± 6.9 mmHg
same,HR,[3]; Resuscitation (30 min),438 ± 21 bpm
same,BP,[3]; Resuscitation (60 min),96.3 ± 7.5 mmHg
same,HR,[3]; Resuscitation (60 min),447 ± 21 bpm
same,Hb,[3]; Resuscitation (60 min),9.5 ± 0.2 g/dL
same,Hct,[3]; Resuscitation (60 min),31.0 ± 0.7%
same,Lactate,[3]; Resuscitation (60 min),1.95 ± 0.11 mmol/L
same,pCO2,[3]; Resuscitation (60 min),48.3 ± 2.2 mmHg
same,pO2,[3]; Resuscitation (60 min),76.0 ± 2.9 mmHg
same,BP,[3]; Resuscitation (90 min),94.7 ± 6.5 mmHg
same,HR,[3]; Resuscitation (90 min),459 ± 14 bpm
same,Hb,[3]; Resuscitation (90 min),9.6 ± 0.1 g/dL
same,Hct,[3]; Resuscitation (90 min),31.5 ± 0.4%
same,Lactate,[3]; Resuscitation (90 min),1.71 ± 0.20 mmol/L
same,pCO2,[3]; Resuscitation (90 min),45.0 ± 2.4 mmHg
same,pO2,[3]; Resuscitation (90 min),65.2 ± 3.0 mmHg
same,BP,[3]; [8],46.1 ± 3.6 mmHg
same,HR,[3]; [8],455 ± 21 bpm
same,Hb,[3]; [8],8.9 ± 0.1 g/dL
same,Hct,[3]; [8],29.2 ± 0.5%
same,Lactate,[3]; [9],4.52 ± 0.58 mmol/L
same,pCO2,[3]; [9],38.9 ± 1.3 mmHg
same,pO2,[3]; [9],93.1 ± 2.8 mmHg
same,pH,[3]; Baseline (before hemorrhage),7.34 ± 0.02
same,pH,[3]; Resuscitation (60 min),7.38 ± 0.02
same,pH,[3]; Resuscitation (90 min),7.36 ± 0.02
same,pH,[3]; [9],7.30 ± 0.01
same,HR compared to the blood group,"[3]; hamster, in vivo",significantly increased
same,MAP compared to the blood group,"[3]; hamster, in vivo",significantly decreased
same,decreases in lactate levels compared to the blood group,"[3]; hamster, in vivo",did not reach significance
same,pH compared to the blood group,"[3]; hamster, in vivo",significantly increased
same,pO2 levels compared to the blood group,"[3]; hamster, in vivo",significantly increased
same,"functional capillary density (FCD), baseline average and standard deviation",[4],107±12
same,functional capillary density (FCD) compared to the blood group,"[4]; hamster, in vivo",not significantly different
O=C(CBr)N1CC([N+](=O)[O-])([N+](=O)[O-])C1 [RRx-001],number of apoptotic cells compared to the blood group,[2]; [10],significantly (P<0.01) less
same,number of necrotic cells compared to the blood group,[2]; [10],significantly (P<0.01) less
same,metHb levels,"[3]; 60 and 90 minutes post fluid resuscitation (FIG. 9), normal about 1% of total Hb",normal
same,MAP compared to the blood group,[3]; 30 minutes following resuscitation,only decreased at 30 minutes
same,metHb levels,"[3]; 60 minutes following resuscitation, RRx-001 treated blood",1.4±0.1%
same,pH compared to the blood group,[3]; 60 minutes post resuscitation,significantly increased
same,blood pressure (MAP) after resuscitation from shock,"[3]; 60 minutes, comparator not stated",significantly decreased
same,metHb levels,"[3]; 90 minutes following resuscitation, RRx-001 treated blood",1.2±0.1%
same,pO2 levels compared to the blood group,[3]; 90 minutes post resuscitation,significantly increased
same,BP,[3]; Baseline (before hemorrhage),106.3 ± 8.7 mmHg
same,HR,[3]; Baseline (before hemorrhage),409 ± 21 bpm
same,Hb,[3]; Baseline (before hemorrhage),15.1 ± 0.3 g/dL
same,Hct,[3]; Baseline (before hemorrhage),49.7 ± 1.0%
same,Lactate,[3]; Baseline (before hemorrhage),1.39 ± 0.20 mmol/L
same,pCO2,[3]; Baseline (before hemorrhage),54.2 ± 1.8 mmHg
same,pO2,[3]; Baseline (before hemorrhage),59.9 ± 2.5 mmHg
same,blood pressure following resuscitation,"[3]; RRx-001 treated blood, current study",maintained blood pressure
same,BP,[3]; Resuscitation (30 min),92.5 ± 6.7 mmHg
same,HR,[3]; Resuscitation (30 min),436 ± 12 bpm
same,BP,[3]; Resuscitation (60 min),98.5 ± 7.6 mmHg
same,HR,[3]; Resuscitation (60 min),444 ± 10 bpm
same,Hb,[3]; Resuscitation (60 min),9.5 ± 0.2 g/dL
same,Hct,[3]; Resuscitation (60 min),31.1 ± 0.6%
same,Lactate,[3]; Resuscitation (60 min),1.93 ± 0.23 mmol/L
same,pCO2,[3]; Resuscitation (60 min),48.0 ± 3.1 mmHg
same,pO2,[3]; Resuscitation (60 min),70.9 ± 3.4 mmHg
same,BP,[3]; Resuscitation (90 min),106.3 ± 9.0 mmHg
same,HR,[3]; Resuscitation (90 min),453 ± 17 bpm
same,Hb,[3]; Resuscitation (90 min),9.5 ± 0.1 g/dL
same,Hct,[3]; Resuscitation (90 min),31.2 ± 0.6%
same,Lactate,[3]; Resuscitation (90 min),1.63 ± 0.23 mmol/L
same,pCO2,[3]; Resuscitation (90 min),49.0 ± 2.2 mmHg
same,pO2,[3]; Resuscitation (90 min),68.7 ± 2.9 mmHg
same,BP,[3]; [8],46.3 ± 4.0 mmHg
same,HR,[3]; [8],422.5 ± 25 bpm
same,Hb,[3]; [8],8.9 ± 0.3 g/dL
same,Hct,[3]; [8],29.0 ± 0.8%
same,Lactate,[3]; [9],4.16 ± 0.39 mmol/L
same,pCO2,[3]; [9],39.3 ± 1.2 mmHg
same,pO2,[3]; [9],94.9 ± 5.1 mmHg
same,pH,[3]; Baseline (before hemorrhage),7.32 ± 0.01
same,pH,[3]; Resuscitation (60 min),7.39 ± 0.01
same,pH,[3]; Resuscitation (90 min),7.36 ± 0.01
same,pH,[3]; [9],7.28 ± 0.02
same,HR compared to the blood group,[3]; following resuscitation,significantly increased
same,pCO2 levels compared to the blood group,[3]; following resuscitation,not significantly different
same,decreases in lactate levels compared to the blood group,[3]; post-resuscitation,did not reach significance
same,blood flow compared to the blood group,[4]; [6],significantly (P<0.001) increased
same,blood flow compared to the blood group,[4]; [7],significantly (P<0.001) increased
same,functional capillary density (FCD) compared to the blood group,[4]; 90 minutes post resuscitation,"significant (P<0.05 and P<0.01, respectively) increases"
same,"functional capillary density (FCD), baseline average and standard deviation",[4],112±9
same,amount of nitric oxide produced by the blood sample,[5],significant increase
